pIC50: −log10 of the molar value.
system: HBsAg secretion in HepG2.2.15 cells; assay: HBsAg assay (chemiluminescence immunoassay of secreted HBsAg in culture supernatant); assay type: cell-based, HBV; settings: HepG2.2.15 cells; concentration at which HBsAg secretion was reduced by 50% compared to the no drug control; read-out: IC50 (HBsAg assay)
Outline: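 IC50 taken from dose-response curves as the concentration halving secreted HBsAg relative to DMSO control. Measured by chemiluminescence immunoassay of culture supernatant from constitutively HBV-expressing HepG2.2.15 cells, seeded at 1.5×10^4/well in duplicate and exposed to three-fold serial compound dilutions at 1% final DMSO.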

In order of falling pIC50:
1. CC1c2cnc(-c3ncccn3)nc2CCN1c1cc(F)cc(N(C)C)n1 (single isomer, unassigned; (-)) [Example 205, (−)-4-fluoro-N,N-dimethyl-6-[5-methyl-2-pyrimidin-2-yl-7,8-dihydro-5H-pyrido[4,3-d]pyrimidin-6-yl]pyridin-2-amine]  8.30
2. COc1cc(F)nc(N2CCc3nc(-c4ncccn4)ncc3C2C)c1 (stereo not drawn) [Example 127, 6-(6-Fluoro-4-methoxy-2-pyridyl)-5-methyl-2-pyrimidin-2-yl-7,8-dihydro-5H-pyrido[4,3-d]pyrimidine]  7.62
3. CC1c2cnc(-c3ncccn3)nc2CCN1c1cc(F)c(F)c(OCCCCCCN)c1 (stereo not drawn) [Example 59, 6-[2,3-difluoro-5-(5-methyl-2-pyrimidin-2-yl-7,8-dihydro-5H-pyrido[4,3-d]pyrimidin-6-yl)phenoxy]hexan-1-amine]  7.12
4. CC1c2cnc(-c3ncccn3)nc2CCN1c1cc(F)cc(N(C)C)n1 (single isomer, unassigned; (+)) [Example 204, (+)-4-fluoro-N,N-dimethyl-6-[5-methyl-2-pyrimidin-2-yl-7,8-dihydro-5H-pyrido[4,3-d]pyrimidin-6-yl]pyridin-2-amine]  6.95
5. CC1c2cnc(-c3ccccn3)nc2CCN1c1ccc([N+](=O)[O-])cc1 (single isomer, unassigned; (-)) [Example 3, (−)-5-methyl-6-(4-nitrophenyl)-2-(2-pyridyl)-7,8-dihydro-5H-pyrido[4,3-d]pyrimidine]  6.94
6. CC1c2cnc(-c3ncccn3)nc2CCN1c1cc(N(C)C)cc(F)n1 (single isomer, unassigned; (+)) [Example 206, (+)-2-fluoro-N,N-dimethyl-6-[5-methyl-2-pyrimidin-2-yl-7,8-dihydro-5H-pyrido[4,3-d]pyrimidin-6-yl]pyridin-4-amine]  6.55
7. CCCC1c2cnc(-c3ccccn3)nc2CCN1c1cc(F)c(F)c(OC)c1 (single isomer, unassigned; (+)) [Example 13, (+)-6-(3,4-difluoro-5-methoxy-phenyl)-5-propyl-2-(2-pyridyl)-7,8-dihydro-5H-pyrido[4,3-d]pyrimidine]  4.84

same assay, conditions: Hepatitis B virus, HepG2.2.15, HepG2.2.15 cells; concentration at which HBsAg secretion was reduced by 50% compared to the no drug control; read-out: IC50 (HBsAg assay)

In order of rising pIC50:
1. CC1c2cnc(-c3ncccn3)nc2CCN1c1cc(F)c(F)c(OCCC(N)C(=O)O)c1 (stereo not drawn) [Example 104, 2-amino-4-[2,3-difluoro-5-(5-methyl-2-pyrimidin-2-yl-7,8-dihydro-5H-pyrido[4,3-d]pyrimidin-6-yl)phenoxy]butanoic acid]  4.72
2. COc1cc(N2CCc3nc(-c4ccccn4)ncc3C2CCO)cc(F)c1F (stereo not drawn) [Example 38, 2-[6-(3,4-difluoro-5-methoxy-phenyl)-2-(2-pyridyl)-7,8-dihydro-5H-pyrido[4,3-d]pyrimidin-5-yl]ethanol]  5.47
3. COc1cc(F)c(Cl)c(N2CCc3nc(-c4ncccn4)ncc3C2C)c1Cl (single isomer, unassigned; (+)) [Example 123, (+)-6-(2,6-dichloro-3-fluoro-5-methoxy-phenyl)-5-methyl-2-pyrimidin-2-yl-7,8-dihydro-5H-pyrido[4,3-d]pyrimidine]  5.94
4. COc1cc(N2CCc3nc(-c4ncccn4)ncc3C2C)c(Cl)c(F)c1Cl (single isomer, unassigned; (+)) [Example 125, (+)-6-(2,4-dichloro-3-fluoro-5-methoxy-phenyl)-5-methyl-2-pyrimidin-2-yl-7,8-dihydro-5H-pyrido[4,3-d]pyrimidine]  5.95
5. CC1c2cnc(-c3ncccn3)nc2CCN1c1cc(F)c(F)c(OCCCS(=O)(=O)O)c1 (stereo not drawn) [Example 78, 3-[2,3-difluoro-5-(5-methyl-2-pyrimidin-2-yl-7,8-dihydro-5H-pyrido[4,3-d]pyrimidin-6-yl)phenoxy]propane-1-sulfonic acid]  6.01
6. COCCCN(C)S(=O)(=O)c1cc(F)cc(N2CCc3nc(-c4ncccn4)ncc3C2C)c1 (stereo not drawn) [Example 183, 3-fluoro-N-(3-methoxypropyl)-N-methyl-5-(5-methyl-2-pyrimidin-2-yl-7,8-dihydro-5H-pyrido[4,3-d]pyrimidin-6-yl)benzenesulfonamide]  6.08
7. CC1c2cnc(-c3ncccn3)nc2CCN1c1cc(OCC(N)=O)cc(F)n1 (stereo not drawn) [Example 174, 2-[[2-fluoro-6-(5-methyl-2-pyrimidin-2-yl-7,8-dihydro-5H-pyrido[4,3-d]pyrimidin-6-yl)-4-pyridyl]oxy]acetamide]  6.18
8. CC1c2cnc(-c3ncccn3)nc2CCN1c1cc(F)c(F)c(OCCCCC(=O)O)c1 (stereo not drawn) [Example 63, 5-[2,3-difluoro-5-(5-methyl-2-pyrimidin-2-yl-7,8-dihydro-5H-pyrido[4,3-d]pyrimidin-6-yl)phenoxy]pentanoic acid]  6.35
9. CC1c2cnc(-c3ncccn3)nc2CCN1c1cc(F)c(F)c(OCCCN2CCN(C(=O)OC(C)(C)C)CC2=O)c1 (stereo not drawn) [Example 98, tert-butyl 4-[3-[2,3-difluoro-5-(5-methyl-2-pyrimidin-2-yl-7,8-dihydro-5H-pyrido[4,3-d]pyrimidin-6-yl)phenoxy]propyl]-3-oxo-piperazine-1-carboxylate]  6.43
10. CC1c2cnc(-c3ncccn3)nc2CCN1c1cc(F)c(F)c(OCCCN2CCNC(=O)C2)c1 (stereo not drawn) [Example 107, 4-[3-[2,3-difluoro-5-(5-methyl-2-pyrimidin-2-yl-7,8-dihydro-5H-pyrido[4,3-d]pyrimidin-6-yl)phenoxy]propyl]piperazin-2-one]  6.77
11. CC1c2cnc(-c3ccccn3)nc2CCN1c1cc(F)c(F)c(OCC(=O)N2CCCC2)c1 (stereo not drawn) [Example 31, 2-[2,3-difluoro-5-[5-methyl-2-(2-pyridyl)-7,8-dihydro-5H-pyrido[4,3-d]pyrimidin-6-yl]phenoxy]-1-pyrrolidin-1-yl-ethanone]  6.81
12. CC1c2cnc(-c3ncccn3)nc2CCN1c1cc(F)c(F)c(OCC2CCS(=O)(=O)C2)c1 (stereo not drawn) [Example 100]  7.02
13. CC1c2cnc(-c3ncccn3)nc2CCN1c1cc(F)c(F)c(OCCCNS(=O)(=O)C2CC2)c1 (stereo not drawn) [Example 93, N-[3-[2,3-difluoro-5-(5-methyl-2-pyrimidin-2-yl-7,8-dihydro-5H-pyrido[4,3-d]pyrimidin-6-yl)phenoxy]propyl]cyclopropanesulfonamide]  7.21
14. CC1c2cnc(-c3ncccn3)nc2CCN1c1cc(F)cc(OCC(F)(F)F)c1 (stereo not drawn) [Example 144, 6-[3-fluoro-5-(2,2,2-trifluoroethoxy)phenyl]-5-methyl-2-pyrimidin-2-yl-7,8-dihydro-5H-pyrido[4,3-d]pyrimidine]  7.32
15. CC1c2cnc(-c3ccccn3)nc2CCN1c1cc(F)c(F)c(OCCCNS(C)(=O)=O)c1 (stereo not drawn) [Example 35, N-[3-[2,3-difluoro-5-[5-methyl-2-(2-pyridyl)-7,8-dihydro-5H-pyrido[4,3-d]pyrimidin-6-yl]phenoxy]propyl]methanesulfonamide]  7.34
16. CC1c2cnc(-c3ccccn3)nc2CCN1c1cc(OCC2CCCO2)cc(F)n1 (stereo not drawn) [Example 189, 6-[6-fluoro-4-(tetrahydrofuran-2-ylmethoxy)-2-pyridyl]-5-methyl-2-(2-pyridyl)-7,8-dihydro-5H-pyrido[4,3-d]pyrimidine]  7.40
17. CC1c2cnc(-c3ccccn3)nc2CCN1c1cc(OCC2CC2)cc(F)n1 (stereo not drawn) [Example 191, 6-[4-(cyclopropylmethoxy)-6-fluoro-2-pyridyl]-5-methyl-2-(2-pyridyl)-7,8-dihydro-5H-pyrido[4,3-d]pyrimidine]  7.46
18. CC1c2cnc(-c3ncccn3)nc2CCN1c1cc(F)c(F)c(OCC(F)(F)F)c1 (stereo not drawn) [Example 69, 6-[3,4-difluoro-5-(2,2,2-trifluoroethoxy)phenyl]-5-methyl-2-pyrimidin-2-yl-7,8-dihydro-5H-pyrido[4,3-d]pyrimidine]  7.48
19. CC1c2cnc(-c3ncccn3)nc2CCN1c1cc(F)c(F)c(OCC2CC2(F)F)c1 (stereo not drawn) [Example 82]  7.52
20. CC1c2cnc(-c3ccccn3)nc2CCN1c1cc(OCC2CCOC2)cc(F)n1 (stereo not drawn) [Example 188, 6-[6-fluoro-4-(tetrahydrofuran-3-ylmethoxy)-2-pyridyl]-5-methyl-2-(2-pyridyl)-7,8-dihydro-5H-pyrido[4,3-d]pyrimidine]  7.54
21. COC(=O)CCCCCCCOc1cc(F)nc(N2CCc3nc(-c4ncccn4)ncc3C2C)c1 (stereo not drawn) [Example 167, methyl 8-[[2-fluoro-6-(5-methyl-2-pyrimidin-2-yl-7,8-dihydro-5H-pyrido[4,3-d]pyrimidin-6-yl)-4-pyridyl]oxy]octanoate]  7.59
22. COc1cc(F)nc(N2CCc3nc(-c4ncccn4)ncc3C2C)c1Cl (single isomer, unassigned; (-)) [Example 147, (−)-6-(3-chloro-6-fluoro-4-methoxy-2-pyridyl)-5-methyl-2-pyrimidin-2-yl-7,8-dihydro-5H-pyrido[4,3-d]pyrimidine]  7.68
23. CC1c2cnc(-c3ccccn3)nc2CCN1c1cc(N2CCNC(=O)C2)cc(F)n1 (stereo not drawn) [Example 222, 4-[2-fluoro-6-[5-methyl-2-(2-pyridyl)-7,8-dihydro-5H-pyrido[4,3-d]pyrimidin-6-yl]-4-pyridyl]piperazin-2-one]  7.80
24. CC1c2cnc(-c3ncccn3)nc2CCN1c1cc(F)c(F)c(OCCC2COC2)c1 (stereo not drawn) [Example 79, 6-[3,4-difluoro-5-[2-(oxetan-3-yl)ethoxy]phenyl]-5-methyl-2-pyrimidin-2-yl-7,8-dihydro-5H-pyrido[4,3-d]pyrimidine]  7.82
25. CC1c2cnc(-c3ncccn3)nc2CCN1c1cc(F)cc(OCC2CC2)c1 (stereo not drawn) [Example 145, 6-[3-(cyclopropylmethoxy)-5-fluoro-phenyl]-5-methyl-2-pyrimidin-2-yl-7,8-dihydro-5H-pyrido[4,3-d]pyrimidine]  7.85
26. CC1c2cnc(-c3ncccn3)nc2CCN1c1cc(OCC2CCOC2)cc(F)n1 (stereo not drawn) [Example 154, 6-[6-fluoro-4-(tetrahydrofuran-3-ylmethoxy)-2-pyridyl]-5-methyl-2-pyrimidin-2-yl-7,8-dihydro-5H-pyrido[4,3-d]pyrimidine]  8.15
